Earlier results in patent US9789102B2, “H3 receptor antagonist for use in the treatment of alzheimer's disease” (SANOFI, priority 2012, dated 2017).

Tested on: protein tau hyperphosphorylation
Conditions: 2-week treatment; TAPP transgenic mice; histopathological studies; cited from earlier work

C[C@@H]1CCCN1CCc1cc2cc(-c3ccc(C#N)cc3)ccc2o1 [ABT-239]
protein tau hyperphosphorylation in the spinal cord and hippocampus: effect
